Data: patent publication US11214803B2, “Modulators of YAP1 expression” (Ionis Pharmaceuticals, Inc., priority 2019, dated 2022)
Strand notation (5' to 3'): a small letter for the sugar, then the base; units joined by * are phosphorothioate-linked, units joined directly phosphodiester-linked; [ ] holds rarer units or linkages, { } end groups; capitals alone tell only the bases. k = constrained ethyl (cEt); [5mC] = 5-methylcytosine; d = 2'-deoxy (DNA)

These substances were tested on Yap1 mRNA (assay: Antisense inhibition of human Yap1 in A-431 cells by cEt gapmers, single dose (Example 1, RTS4814)). Settings: A-431 cells, 5,000 cells per well, free uptake, 2,000 nM modified oligonucleotide, approx. 48 hours, RTS4814, normalized to RIBOGREEN; Table 3.
Format: cell-based
In short: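 Free uptake of 2,000 nM 3-10-3 cEt gapmer (16-mer, full phosphorothioate, 5-methylcytosines) in A-431 cells for ~48 h. Yap1 mRNA quantified by qRT-PCR with set RTS4814, normalized to total RNA (RiboGreen), and expressed as % of untreated control; asterisked values target the amplicon region.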

Substance	YAP1 (% UTC)
715516 (k[5mC]*k[5mC]*kT*dA*dT*dG*dA*dG*dT*d[5mC]*dA*dA*d[5mC]*k[5mC]*kT*kG; antisense) [Compound 715516]	77
715468 (antisense kG*k[5mC]*kT*dT*dG*dG*dT*dG*dG*d[5mC]*dA*dG*d[5mC]*k[5mC]*kA*kA) [Compound 715468]	90
715420 (kG*kA*kT*dT*dT*dA*dA*dG*dA*dA*dG*dT*dA*kT*k[5mC]*kT; antisense) [Compound 715420]	107
715528 (kA*kA*kA*d[5mC]*d[5mC]*dT*dG*dA*dT*d[5mC]*d[5mC]*dT*dT*kT*kG*kA; antisense) [Compound 715528]	98
715573 (kT*kA*kT*dA*dT*dA*dT*dG*dG*dT*dA*dG*dT*k[5mC]*kT*kA; antisense) [Compound 715573]	76
715513 (kG*k[5mC]*kG*dG*dA*dG*dG*d[5mC]*dG*d[5mC]*dG*d[5mC]*dG*k[5mC]*kA*kT; antisense) [Compound 715513]	125
715534 (kT*k[5mC]*k[5mC]*d[5mC]*d[5mC]*dA*dG*dG*dT*d[5mC]*dA*dG*d[5mC]*kA*kT*kG; antisense) [Compound 715534]	112
715426 (kA*kT*k[5mC]*d[5mC]*dA*dT*d[5mC]*dA*dG*dG*dA*dA*dG*kA*kG*kG; antisense) [Compound 715426]	80
715588 (kA*kG*k[5mC]*dA*dG*d[5mC]*dT*dA*dA*d[5mC]*dA*dG*d[5mC]*kT*kT*kG; antisense) [Compound 715588]	96
715504 (antisense kT*kG*kG*dT*dT*dT*dA*dT*dT*dG*dT*dA*dA*kA*kA*kG) [Compound 715504]	70
715585 (kA*kA*kG*dG*dT*d[5mC]*dT*dG*dG*dA*dA*d[5mC]*dA*kG*kA*kT; antisense) [Compound 715585]	73
715618 (antisense kA*kT*kA*dA*dG*dA*d[5mC]*dG*dG*dA*dT*dA*dA*kA*kA*kA) [Compound 715618]	101
715489 (antisense kA*kA*k[5mC]*dT*dA*dT*dT*dA*d[5mC]*dT*dT*d[5mC]*dA*kT*kA*kG) [Compound 715489]	90
715570 (kG*k[5mC]*k[5mC]*dA*dA*dA*dG*dG*dT*dA*dG*dG*dA*kT*kA*kA; antisense) [Compound 715570]	79
715507 (antisense kT*kG*kG*dG*dA*dT*dT*dG*dA*dT*dA*dT*dT*k[5mC]*k[5mC]*kG) [Compound 715507]	95
715462 (antisense kT*k[5mC]*kT*d[5mC]*dA*dT*d[5mC]*dT*d[5mC]*dG*dA*dG*dA*kG*kT*kG) [Compound 715462]	94
715576 (kA*kA*k[5mC]*d[5mC]*dT*dT*dT*dA*d[5mC]*d[5mC]*dA*dA*dA*kA*k[5mC]*kG; antisense) [Compound 715576]	80
715561 (k[5mC]*kA*k[5mC]*dA*dA*d[5mC]*dT*d[5mC]*dA*dG*dA*d[5mC]*dA*kG*kG*kG; antisense) [Compound 715561]	69

Same assay, conditions: Table 1; A-431 cells, free uptake, 2,000 nM, approximately 48 hours, RTS4814; Yap1 mRNA relative to untreated control cells

Substance	YAP1 (% UTC)
715514 (kG*kA*kG*d[5mC]*dG*dA*dA*dG*dG*dT*dG*d[5mC]*dG*kG*kA*kG; antisense) [Compound 715514]	121
715535 (k[5mC]*kT*kA*dT*dT*dA*dA*dG*d[5mC]*dT*dG*dT*dT*kT*kA*kA; antisense) [Compound 715535]	91
715421 (kG*kT*kG*dA*dT*dT*dT*dA*dA*dG*dA*dA*dG*kT*kA*kT; antisense) [Compound 715421]	71
715406 (k[5mC]*kT*kT*dG*dA*dA*dG*dA*dA*dG*dG*dA*dG*kT*k[5mC]*kG; antisense) [Compound 715406]	58
715562 (k[5mC]*kA*k[5mC]*dA*d[5mC]*dA*dA*d[5mC]*dT*d[5mC]*dA*dG*dA*k[5mC]*kA*kG; antisense) [Compound 715562]	77
715415 (k[5mC]*kG*kA*dA*d[5mC]*dA*dT*dG*d[5mC]*dT*dG*dT*dG*kG*kA*kG; antisense) [Compound 715415]	24
715442 (antisense k[5mC]*kA*k[5mC]*dT*dG*dG*dA*dG*d[5mC]*dA*d[5mC]*dT*d[5mC]*kT*kG*kA) [Compound 715442]	64
715532 (kT*kA*kA*d[5mC]*dA*dA*d[5mC]*d[5mC]*dT*dG*dG*dT*dT*kT*kG*kT; antisense) [Compound 715532]	91
715607 (antisense kT*k[5mC]*kA*d[5mC]*d[5mC]*dA*dT*dA*dG*d[5mC]*dA*d[5mC]*dA*kG*kA*kA) [Compound 715607]	116
715628 (antisense kG*k[5mC]*k[5mC]*dT*dA*d[5mC]*d[5mC]*dT*dG*dA*d[5mC]*dA*dT*kT*kT*kT) [Compound 715628]	114
715460 (antisense kA*kT*k[5mC]*dT*d[5mC]*dG*dA*dG*dA*dG*dT*dG*dA*kT*kA*kG) [Compound 715460]	114
715457 (antisense kA*kG*kA*dG*dT*dG*dA*dT*dA*dG*dG*dT*dG*k[5mC]*k[5mC]*kA) [Compound 715457]	47
715508 (antisense k[5mC]*kT*kG*dT*dG*d[5mC]*dT*dG*dG*dG*dA*dT*dT*kG*kA*kT) [Compound 715508]	24

Same assay, conditions: Table 2; A-431 cells, free uptake, 2,000 nM, approximately 48 hours, RTS4814; Yap1 mRNA relative to untreated control cells

Substance	YAP1 (% UTC)
715602 (antisense kA*k[5mC]*kA*dG*dA*dA*dT*dT*d[5mC]*d[5mC]*d[5mC]*dA*dA*kG*k[5mC]*kT) [Compound 715602]	110
715458 (antisense k[5mC]*kG*kA*dG*dA*dG*dT*dG*dA*dT*dA*dG*dG*kT*kG*k[5mC]) [Compound 715458]	58
715611 (antisense k[5mC]*kT*kT*dT*dA*dA*dG*d[5mC]*d[5mC]*dA*d[5mC]*dA*dT*kG*kG*kT) [Compound 715611]	106
715551 (kA*kT*kA*dG*dG*dA*dA*dG*dT*dT*dG*dT*dT*kG*kA*k[5mC]; antisense) [Compound 715551]	82
715596 (antisense kG*kT*kT*d[5mC]*dA*dT*dG*dG*d[5mC]*dT*dG*dA*dA*kA*kT*kG) [Compound 715596]	104
715431 (k[5mC]*k[5mC]*kA*dT*d[5mC]*d[5mC]*dT*dG*dA*dG*dT*d[5mC]*dA*kT*kG*kG; antisense) [Compound 715431]	99
715503 (antisense k[5mC]*k[5mC]*k[5mC]*d[5mC]*dA*dG*dA*d[5mC]*dT*dT*dA*dA*dT*kT*k[5mC]*kA) [Compound 715503]	136
715413 (k[5mC]*kA*kT*dG*d[5mC]*dT*dG*dT*dG*dG*dA*dG*dT*k[5mC]*kA*kG; antisense) [Compound 715413]	96
715419 (kG*kA*k[5mC]*d[5mC]*dA*dG*dA*dA*dG*dA*dT*dG*dT*k[5mC]*kT*kT; antisense) [Compound 715419]	107
715407 (kG*kG*k[5mC]*dT*dT*dG*dA*dA*dG*dA*dA*dG*dG*kA*kG*kT; antisense) [Compound 715407]	53
